Measurements as given in the supplement of paper PMC10307832.

Legend:
Assay in all cases: relative viability (nuclei count vs DMSO), 5 days (fraction); higher = more cells survive
XMD13-2 = compound: C1CC1C(=O)NC2=NNC3=C2C=CC(=C3)C4=CC(=CC=C4)C(=O)NC5CC5 [XMD13-2]
Procedure, shortened: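 Vehicle-anchored 1536-well plates of lung cancer cell lines, held overnight at 37 °C, were pinned with five library-drug doses (not always all listed) spaced by √10. No medium change followed over the next 5 days, after which the cells were fixed, permeabilised and Hoechst-stained together and imaged at 4×. Nuclei were counted with MetaXpress, and viability is treated-well nuclei over vehicle-well nuclei, taken as a median across plates. Plates passed with control CV below 25% and at least one doubling.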

ALW-II-49-7 + Pictilisib = compound: Cc1ccc(C(=O)Nc2cccc(C(F)(F)F)c2)cc1Nc1cncc(C(N)=O)c1 [ALW-II-49-7] + CS(=O)(=O)N1CCN(Cc2cc3nc(-c4cccc5[nH]ncc45)nc(N4CCOCC4)c3s2)CC1 [Pictilisib] (partner 1 µM)
Procedure, shortened: (§1)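 Lung cancer cell lines were seeded in 1536-well plates and dosed by pin tool the next day, with either a single drug or a fixed anchor-drug dose combined with five library-drug doses (not always all listed) spaced in √10 steps. Five days later, one step fixed the cells and stained their nuclei (final 0.05% Triton X-100, 1% formaldehyde, 1 ug/ml Hoechst), and nuclei were counted on 4× images. Relative viability is the nuclei count in treated wells divided by the count in vehicle wells, and each value is the median of duplicate plates.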

ALW-II-49-7 + Linsitinib = compound: Cc1ccc(C(=O)Nc2cccc(C(F)(F)F)c2)cc1Nc1cncc(C(N)=O)c1 [ALW-II-49-7] + C[C@]1(O)C[C@@H](c2nc(-c3ccc4ccc(-c5ccccc5)nc4c3)c3c(N)nccn32)C1 [Linsitinib] (partner 1 µM)
Procedure, shortened: as §1

Dasatinib + AZD7762 = compound: Cc1nc(Nc2ncc(C(=O)Nc3c(C)cccc3Cl)s2)cc(N2CCN(CCO)CC2)n1 [Dasatinib] + NC(=O)Nc1cc(-c2cccc(F)c2)sc1C(=O)N[C@H]1CCCNC1 [AZD7762] (partner 0.2 µM)
Procedure, shortened: as §1

Work on NCI-H1355 yielded a relative viability (XMD13-2; 0.05 µM) of 1.12, a relative viability (XMD13-2; 0.1581 µM) of 0.961 and a relative viability (XMD13-2; 0.5 µM) of 0.995. The relative viability (XMD13-2; 1.581 µM) was 0.949, the relative viability (XMD13-2; 5 µM) was 1.02 and the relative viability (ALW-II-49-7 + Pictilisib; first compound 0.08 µM) was 0.413. It also gave a relative viability (ALW-II-49-7 + Pictilisib; first compound 0.253 µM) of 0.469, a relative viability (ALW-II-49-7 + Pictilisib; first compound 0.8 µM) of 0.395 and a relative viability (ALW-II-49-7 + Pictilisib; first compound 2.53 µM) of 0.322. The relative viability (ALW-II-49-7 + Pictilisib; first compound 8 µM) was 0.345, the relative viability (ALW-II-49-7 + Linsitinib; first compound 0.08 µM) was 0.731 and the relative viability (ALW-II-49-7 + Linsitinib; first compound 0.253 µM) was 0.872. For the same cell line, the relative viability (ALW-II-49-7 + Linsitinib; first compound 0.8 µM) was 0.797, the relative viability (ALW-II-49-7 + Linsitinib; first compound 2.53 µM) was 0.752 and the relative viability (ALW-II-49-7 + Linsitinib; first compound 8 µM) was 0.758. For the same cell line, the relative viability (Dasatinib + AZD7762; first compound 0.005 µM) was 0.851, the relative viability (Dasatinib + AZD7762; first compound 0.01581 µM) was 0.711 and the relative viability (Dasatinib + AZD7762; first compound 0.05 µM) was 0.694. The relative viability (Dasatinib + AZD7762; first compound 0.1581 µM) was 0.571 and the relative viability (Dasatinib + AZD7762; first compound 0.5 µM) was 0.535.

Cell Line A-427 has a relative viability (XMD13-2; 0.05 µM) of 1.12, a relative viability (XMD13-2; 0.1581 µM) of 0.921 and a relative viability (XMD13-2; 0.5 µM) of 1.01. For the same cell line, the relative viability (XMD13-2; 1.581 µM) was 0.904, the relative viability (XMD13-2; 5 µM) was 0.744 and the relative viability (ALW-II-49-7 + Pictilisib; first compound 0.08 µM) was 0.687. The relative viability (ALW-II-49-7 + Pictilisib; first compound 0.253 µM) was 0.634, the relative viability (ALW-II-49-7 + Pictilisib; first compound 0.8 µM) was 0.835 and the relative viability (ALW-II-49-7 + Pictilisib; first compound 2.53 µM) was 0.775. The relative viability (ALW-II-49-7 + Pictilisib; first compound 8 µM) was 0.734, the relative viability (ALW-II-49-7 + Linsitinib; first compound 0.08 µM) was 1.17 and the relative viability (ALW-II-49-7 + Linsitinib; first compound 0.253 µM) was 1.15. For the same cell line, the relative viability (ALW-II-49-7 + Linsitinib; first compound 0.8 µM) was 1.15, the relative viability (ALW-II-49-7 + Linsitinib; first compound 2.53 µM) was 1.12 and the relative viability (ALW-II-49-7 + Linsitinib; first compound 8 µM) was 1.18. The relative viability (Dasatinib + AZD7762; first compound 0.005 µM) was 0.72, the relative viability (Dasatinib + AZD7762; first compound 0.01581 µM) was 0.745 and the relative viability (Dasatinib + AZD7762; first compound 0.05 µM) was 0.536. The relative viability (Dasatinib + AZD7762; first compound 0.1581 µM) was 0.52 and the relative viability (Dasatinib + AZD7762; first compound 0.5 µM) was 0.519.

Work on NCI-H1793 yielded a relative viability (XMD13-2; 0.05 µM) of 1.27, a relative viability (XMD13-2; 0.1581 µM) of 0.721 and a relative viability (XMD13-2; 0.5 µM) of 1.07. It also gave a relative viability (XMD13-2; 1.581 µM) of 0.977, a relative viability (XMD13-2; 5 µM) of 1.12 and a relative viability (ALW-II-49-7 + Pictilisib; first compound 0.08 µM) of 0.371. For the same cell line, the relative viability (ALW-II-49-7 + Pictilisib; first compound 0.253 µM) was 0.333, the relative viability (ALW-II-49-7 + Pictilisib; first compound 0.8 µM) was 0.293 and the relative viability (ALW-II-49-7 + Pictilisib; first compound 2.53 µM) was 0.396. It also gave a relative viability (ALW-II-49-7 + Pictilisib; first compound 8 µM) of 0.286, a relative viability (ALW-II-49-7 + Linsitinib; first compound 0.08 µM) of 0.864 and a relative viability (ALW-II-49-7 + Linsitinib; first compound 0.253 µM) of 0.723. The relative viability (ALW-II-49-7 + Linsitinib; first compound 0.8 µM) was 0.84, the relative viability (ALW-II-49-7 + Linsitinib; first compound 2.53 µM) was 0.868 and the relative viability (ALW-II-49-7 + Linsitinib; first compound 8 µM) was 0.863. It also gave a relative viability (Dasatinib + AZD7762; first compound 0.005 µM) of 0.425, a relative viability (Dasatinib + AZD7762; first compound 0.01581 µM) of 0.369 and a relative viability (Dasatinib + AZD7762; first compound 0.05 µM) of 0.247. For the same cell line, the relative viability (Dasatinib + AZD7762; first compound 0.1581 µM) was 0.229 and the relative viability (Dasatinib + AZD7762; first compound 0.5 µM) was 0.273.

Cell Line NCI-H596 has a relative viability (XMD13-2; 0.05 µM) of 1.03, a relative viability (XMD13-2; 0.1581 µM) of 1.02 and a relative viability (XMD13-2; 0.5 µM) of 0.944. The relative viability (XMD13-2; 1.581 µM) was 1.03, the relative viability (XMD13-2; 5 µM) was 1.12 and the relative viability (ALW-II-49-7 + Pictilisib; first compound 0.08 µM) was 0.423. For the same cell line, the relative viability (ALW-II-49-7 + Pictilisib; first compound 0.253 µM) was 0.418, the relative viability (ALW-II-49-7 + Pictilisib; first compound 0.8 µM) was 0.416 and the relative viability (ALW-II-49-7 + Pictilisib; first compound 2.53 µM) was 0.369. It also gave a relative viability (ALW-II-49-7 + Pictilisib; first compound 8 µM) of 0.397, a relative viability (ALW-II-49-7 + Linsitinib; first compound 0.08 µM) of 1.1 and a relative viability (ALW-II-49-7 + Linsitinib; first compound 0.253 µM) of 1.08. The relative viability (ALW-II-49-7 + Linsitinib; first compound 0.8 µM) was 1.11, the relative viability (ALW-II-49-7 + Linsitinib; first compound 2.53 µM) was 1.06 and the relative viability (ALW-II-49-7 + Linsitinib; first compound 8 µM) was 1.1. It also gave a relative viability (Dasatinib + AZD7762; first compound 0.005 µM) of 0.945, a relative viability (Dasatinib + AZD7762; first compound 0.01581 µM) of 0.828 and a relative viability (Dasatinib + AZD7762; first compound 0.05 µM) of 0.929. It also gave a relative viability (Dasatinib + AZD7762; first compound 0.1581 µM) of 0.74 and a relative viability (Dasatinib + AZD7762; first compound 0.5 µM) of 0.553.

For LU99A, the relative viability (XMD13-2; 0.05 µM) was 1.05, the relative viability (XMD13-2; 0.1581 µM) was 1.05 and the relative viability (XMD13-2; 0.5 µM) was 1.01. For the same cell line, the relative viability (XMD13-2; 1.581 µM) was 1.03, the relative viability (XMD13-2; 5 µM) was 0.927 and the relative viability (ALW-II-49-7 + Pictilisib; first compound 0.08 µM) was 0.323. For the same cell line, the relative viability (ALW-II-49-7 + Pictilisib; first compound 0.253 µM) was 0.325, the relative viability (ALW-II-49-7 + Pictilisib; first compound 0.8 µM) was 0.297 and the relative viability (ALW-II-49-7 + Pictilisib; first compound 2.53 µM) was 0.325. The relative viability (ALW-II-49-7 + Pictilisib; first compound 8 µM) was 0.293, the relative viability (ALW-II-49-7 + Linsitinib; first compound 0.08 µM) was 0.569 and the relative viability (ALW-II-49-7 + Linsitinib; first compound 0.253 µM) was 0.464. The relative viability (ALW-II-49-7 + Linsitinib; first compound 0.8 µM) was 0.573, the relative viability (ALW-II-49-7 + Linsitinib; first compound 2.53 µM) was 0.421 and the relative viability (ALW-II-49-7 + Linsitinib; first compound 8 µM) was 0.589. For the same cell line, the relative viability (Dasatinib + AZD7762; first compound 0.005 µM) was 0.399, the relative viability (Dasatinib + AZD7762; first compound 0.01581 µM) was 0.35 and the relative viability (Dasatinib + AZD7762; first compound 0.05 µM) was 0.277. For the same cell line, the relative viability (Dasatinib + AZD7762; first compound 0.1581 µM) was 0.215 and the relative viability (Dasatinib + AZD7762; first compound 0.5 µM) was 0.171.
